Assay results from US9505742B2, “3,4-dihydro-2H-isoquinoline-1-one and 2,3-dihydro-isoindol-1-one compounds” (Hoffmann-La Roche Inc., priority 2013, dated 2016).

Legend:
human CYP11B2 = target: T1, human CYP11B2 (Homo sapiens, UniProt P19099); assay: G-402 cellular enzyme assay, human CYP11B2 (aldosterone release, HTRF); format: cell-based; conditions: G-402 cells expressing human CYP11B2; 1 μM Deoxycorticosterone
T1 construct: The expression plasmids contains the ORF for either human/cyno CYP11B1 or CYP11B2; expressed in transfected cells
T1 sequence (P19099 25-503): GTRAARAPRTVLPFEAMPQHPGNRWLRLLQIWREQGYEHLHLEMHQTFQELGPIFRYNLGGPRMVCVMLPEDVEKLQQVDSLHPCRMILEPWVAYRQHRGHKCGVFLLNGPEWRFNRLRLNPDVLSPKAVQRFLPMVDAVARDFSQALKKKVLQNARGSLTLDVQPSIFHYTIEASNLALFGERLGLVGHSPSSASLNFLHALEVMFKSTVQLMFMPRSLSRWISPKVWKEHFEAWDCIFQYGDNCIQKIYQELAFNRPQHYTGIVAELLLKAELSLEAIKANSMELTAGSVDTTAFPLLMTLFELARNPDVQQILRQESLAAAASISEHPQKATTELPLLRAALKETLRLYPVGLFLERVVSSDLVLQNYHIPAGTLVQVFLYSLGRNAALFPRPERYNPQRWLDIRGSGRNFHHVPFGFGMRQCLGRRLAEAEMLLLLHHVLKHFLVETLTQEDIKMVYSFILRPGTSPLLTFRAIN
Description: (§1) Herein we identified the use of the G-402 cell line as a host cell to ectopically express (transiently or stably) enzymes of the CYP11 family. Specifically we developed stable G-402 cells expressing ectopically human CYP11B1, human CYP11B2, human CYP11A1, cynmolgus CYP11B1 or cynomolgus CYP11B2 enzyme activity. Importantly the identified cell line G-402 expresses co-factors (adrenodoxin and adrenodoxin reductase) important for the activity of the CYP11 family and no relevant enzyme activity of the CYP11 family (in comparison to H295R cells) was detected in these cells. Therefore the G-402 cell line is uniquely suited as a host cell for the ectopic expression of enzymes from the CYP11 family. G-402 cells can be obtained from ATCC (CRL-1440) and were originally derived from a renal leiomyoblastoma.
(§2) The expression plasmids contains the ORF for either human/cyno CYP11B1 or CYP11B2 under the control of a suitable promoter (CMV-promoter) and a suitable resistance marker (neomycin). Using standard techniques the expression plasmid is transfected into G-402 cells and these cells are then selected for expressing the given resistance markers. Individual cell-clones are then selected and assessed for displaying the desired enzymatic activity using 11-Deoxycorticosterone (Cyp11B2) or 11-Deoxycortisol (Cyp11B) as a substrate.
(§3) G-402 cells expressing CYP11 constructs were established as described above and maintained in McCoy's 5a Medium Modified, ATCC Catalog No. 30-2007 containing 10% FCS and 400 μg/ml G418 (Geneticin) at 37° C. under an atmosphere of 5% CO2/95% air. Cellular enzyme assays were performed in DMEM/F12 medium containing 2.5% charcoal treated FCS and appropriate concentration of substrate (0.3-10 uM 11-Deoxycorticosterone, 11-Deoxycortisol or Corticosterone). For assaying enzymatic activity, cells were plated onto 96 well plates and incubated for 16 h. An aliquot of the supernatant is then transferred and analyzed for the concentration of the expected product (Aldosterone for CYP11B2; Cortisol for CYP11B1). The concentrations of these steroids can be determined using HTRF assays from CisBio analyzing either Aldosterone or Cortisol.
(§4) Inhibition of the release of produced steroids can be used as a measure of the respective enzyme inhibition by test compounds added during the cellular enzyme assay. The dose dependent inhibition of enzymatic activity by a compound is calculated by means of plotting added inhibitor concentrations (x-axes) vs. measured steroid/product level (y-axes). The inhibition is then calculated by fitting the following 4-parameter sigmoidal function (Morgan-Mercer-Flodin (MMF) model) to the raw data points using the least squares method:
(§5) [formula] wherein, A is the maximum y value, B is the EC50 factor determined using XLFit, C is the minimum y value and D is the slope value.
(§6) EC50 values for compounds claimed herein were tested with the G402-based assay system described. Cyp11B2 enzyme activity was tested in presence of 1 μM Deoxycorticosterone and variable amounts of inhibitors; Cyp11B1 enzyme activity was tested in presence of 1 μM Deoxycortisol and variable amounts of inhibitors.

human CYP11B1 = target: T2, human CYP11B1 (Homo sapiens, UniProt P15538); assay: G-402 cellular enzyme assay, human CYP11B1 (cortisol release, HTRF); format: cell-based; conditions: G-402 cells expressing human CYP11B1; 1 μM Deoxycortisol
T2 construct: The expression plasmids contains the ORF for either human/cyno CYP11B1 or CYP11B2; expressed in transfected cells
T2 sequence (P15538 25-503): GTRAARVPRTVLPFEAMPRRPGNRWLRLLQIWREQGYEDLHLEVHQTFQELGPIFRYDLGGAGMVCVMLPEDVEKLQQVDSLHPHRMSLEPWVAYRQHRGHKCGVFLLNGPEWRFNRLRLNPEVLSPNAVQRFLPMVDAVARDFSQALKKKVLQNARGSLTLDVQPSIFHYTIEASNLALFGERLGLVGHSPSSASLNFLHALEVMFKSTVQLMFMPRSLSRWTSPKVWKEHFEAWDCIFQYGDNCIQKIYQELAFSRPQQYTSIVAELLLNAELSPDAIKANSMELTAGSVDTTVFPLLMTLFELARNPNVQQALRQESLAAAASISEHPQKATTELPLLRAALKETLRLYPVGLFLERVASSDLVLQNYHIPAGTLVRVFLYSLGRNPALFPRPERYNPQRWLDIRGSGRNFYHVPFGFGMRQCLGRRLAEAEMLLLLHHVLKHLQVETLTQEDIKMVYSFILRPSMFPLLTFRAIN
Description: as §1, §2, §3, §4, §5, §6

| SMILES | EC50 (human CYP11B2) | EC50 (human CYP11B1) |
| --- | --- | --- |
| CC(C)S(=O)(=O)N1CCC(F)(c2cncc(N3C(=O)c4ccc(Cl)cc4C3(C)C)c2)C1 (stereo not shown) [Example 14, 5-Chloro-2-[5-(3-fluoro-1-propan-2-ylsulfonylpyrrolidin-3-yl)pyridin-3-yl]-3,3-dimethylisoindol-1-one] | 0.004 µM | 0.232 µM |
| CCCS(=O)(=O)N1CCC(c2cncc(N3C(=O)c4ccc(Cl)cc4C3(C)C)c2)CC1 [Example 15, 5-Chloro-3,3-dimethyl-2-[5-(1-propylsulfonylpiperidin-4-yl)pyridin-3-yl]isoindol-1-one] | 0.001 µM | 0.239 µM |
| CC(C)S(=O)(=O)N1CCC(c2cncc(N3C(=O)c4ccc(Cl)cc4C3(C)C)c2)CC1 [Example 16, 5-Chloro-3,3-dimethyl-2-[5-(1-propan-2-ylsulfonylpiperidin-4-yl)pyridin-3-yl]isoindol-1-one] | 0.004 µM | 1.19 µM |
| CC1(C)c2cc(Cl)ccc2C(=O)N1c1cncc(C2CCN(S(=O)(=O)C3CC3)CC2)c1 [Example 17, 5-Chloro-2-[5-(1-cyclopropylsulfonylpiperidin-4-yl)pyridin-3-yl]-3,3-dimethylisoindol-1-one] | 0.003 µM | 1 µM |
| Cc1ccncc1C(=O)N1CCC(c2cncc(N3C(=O)c4ccc(Cl)cc4C3(C)C)c2)CC1 [Example 18, 5-Chloro-3,3-dimethyl-2-[5-[1-(4-methylpyridine-3-carbonyl)piperidin-4-yl]pyridin-3-yl]isoindol-1-one] | 0.016 µM | 0.219 µM |
| CC1(C)c2cc(Cl)ccc2C(=O)N1c1cncc(C2CCN(C(=O)c3ccncc3Cl)CC2)c1 [Example 19, 5-Chloro-2-[5-[1-(3-chloropyridine-4-carbonyl)piperidin-4-yl]pyridin-3-yl]-3,3-dimethylisoindol-1-one] | 0.021 µM | 1.34 µM |
| CC1(C)c2cc(Cl)ccc2C(=O)N1c1cncc(C2CCN(C(=O)c3ncccc3Cl)CC2)c1 [Example 20, 5-Chloro-2-[5-[1-(3-chloropyridine-2-carbonyl)piperidin-4-yl]pyridin-3-yl]-3,3-dimethylisoindol-1-one] | 0.008 µM | 0.488 µM |
| CCS(=O)(=O)N1CCC(c2cncc(N3Cc4cc(Cl)ccc4C3=O)c2)CC1 [Example 21, 5-Chloro-2-[5-(1-ethylsulfonylpiperidin-4-yl)pyridin-3-yl]-3H-isoindol-1-one] | 0.025 µM | 1.05 µM |
| CC(C)S(=O)(=O)N1CCC(c2cncc(N3Cc4cc(Cl)ccc4C3=O)c2)CC1 [Example 22, 5-Chloro-2-[5-(1-propan-2-ylsulfonylpiperidin-4-yl)pyridin-3-yl]-3H-isoindol-1-one] | 0.084 µM | 7.34 µM |
| Cc1ccncc1C(=O)N1CCC(c2cncc(N3Cc4cc(Cl)ccc4C3=O)c2)CC1 [Example 23, 5-Chloro-2-[5-[1-(4-methylpyridine-3-carbonyl)piperidin-4-yl]pyridin-3-yl]-3H-isoindol-1-one] | 0.097 µM | 0.949 µM |
| CCS(=O)(=O)N1CCC(F)(c2cncc(N3C(=O)c4ccc(Cl)cc4C3(C)C)c2)CC1 [Example 30, 5-Chloro-2-[5-(1-ethylsulfonyl-4-fluoropiperidin-4-yl)pyridin-3-yl]-3,3-dimethylisoindol-1-one] | 0.001 µM | 0.153 µM |
| CC(C)S(=O)(=O)N1CCC(F)(c2cncc(N3C(=O)c4ccc(Cl)cc4C3(C)C)c2)CC1 [Example 31, 5-Chloro-2-[5-(4-fluoro-1-propan-2-ylsulfonylpiperidin-4-yl)pyridin-3-yl]-3,3-dimethylisoindol-1-one] | 0.0015 µM | 0.772 µM |
| CCS(=O)(=O)N1CC(c2cncc(N3C(=O)c4ccc(Cl)cc4C3(C)C)c2)C1 [Example 32, 5-Chloro-2-[5-(1-ethylsulfonylazetidin-3-yl)pyridin-3-yl]-3,3-dimethylisoindol-1-one] | 0.007 µM | 0.616 µM |
| CC(=O)N1CC(c2cncc(N3C(=O)c4ccc(Cl)cc4C3(C)C)c2)C1 [Example 33, 2-[5-(1-Acetylazetidin-3-yl)pyridin-3-yl]-5-chloro-3,3-dimethylisoindol-1-one] | 0.148 µM | 4.55 µM |
